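Dose response: 5 concentrations. Exposure: 48 h. Format: 96-well plates. Endpoint: linear interpolation; highest concentration if not reached. Abbreviation: GI50, concentration required for 50% inhibition of growth. TGI is the concentration that stops growth completely.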
Legend:
Test in all cases: DTP human tumour cell line panel, 48 h
[1] = system: SF-539 CNS
[2] = system: UACC-257 melanoma
[3] = system: EKVX NSCLC
[4] = system: ACHN renal
[5] = system: DU-145 prostate
[6] = system: A549 NSCLC
[7] = system: UACC-62 melanoma
[8] = system: HL-60(TB) leukemia
[9] = system: SK-MEL-5 melanoma
[10] = system: OVCAR-3 ovarian

Structure (SMILES)	GI50 [1] [µM]	TGI [1] [µM]	GI50 [2] [µM]	TGI [2] [µM]	GI50 [3] [µM]	TGI [3] [µM]	GI50 [4] [µM]	TGI [4] [µM]	GI50 [5] [µM]	TGI [5] [µM]	GI50 [6] [µM]	TGI [6] [µM]	GI50 [7] [µM]	TGI [7] [µM]	GI50 [8] [µM]	TGI [8] [µM]	GI50 [9] [µM]	TGI [9] [µM]	GI50 [10] [µM]	TGI [10] [µM]
COc1ccc(-n2cc(-c3cc(OC)c(OC)c(OC)c3)nc2SCc2ccccc2)cc1OC	> 100	> 100	77.9	> 100	57.9	> 100	> 92.9	> 100	> 100	> 100	48.8	> 100	44.9	> 100	48.2	> 100	15.6	> 100	> 100	> 100
O=C(O)C1C(C(=O)O)C23CC2(C(=O)O)C2(C(=O)O)CCC3=C3CCCC312 (centres undefined)	–	34.8	–	15.4	–	54.3	–	59.2	–	34.1	–	> 100	–	23.5	–	18.3	–	18.2	–	11.7
Cc1ccc2c(c1)C(C)Cc1c(Cl)ncnc1N2C (centres undefined)	3.85	19	4.29	46.2	2.33	26.3	3.7	> 100	4.21	91.9	4.26	> 100	3.72	21.8	3.07	71.8	1.86	3.41	2.26	5.4
O=C1C=CC[C@H](/C=C/c2ccccc2)O1	0.813	8.24	9.81	26.9	6.48	> 50.1	4.04	16.6	2.82	9.07	3.56	> 100	4.84	19	–	> 34	3.39	16.6	1.94	7.31
COc1ccccc1N1CCN(CCc2c[nH]c3cc4c(cc23)OCO4)CC1	20.2	> 100	26.5	88.9	16.8	64.6	21.3	> 100	28.9	> 100	31	> 100	32.2	> 100	10.4	> 100	13.2	26.2	30.2	> 100
CNCCNc1c2c(c(NCCNC)c3[nH]ccc13)C(=O)c1ccccc1C2=O	0.458	1.07	1.72	7.04	1.33	4.13	0.0434	0.306	0.526	1.31	0.0904	0.427	0.231	1.05	0.195	0.838	0.421	0.901	0.174	0.887
